Reference: patent US7732470B2, “Compositions and methods for the treatment of renal and cardiovascular disease” (Medical College of Georgia Research Institute, priority 2006, dated 2010)

System: spontaneously hypertensive rats (SHR)
Test: Blood pressure in spontaneously hypertensive rats
Assay type: in vivo, rat
Procedure: As the 11-nonyloxy-undec-8(Z)-enoic acid derivatives lowered blood pressure in angiontensin hypertension, additional experiments were performed to determine if one of the derivatives could lower blood pressure in another hypertension model system. Male spontaneously hypertensive rats (SHRs) were maintained on a 12-hour light-dark cycle and allowed access to food and water ad libitum. These studies complied with the protocols for animal use outlined by the American Physiological Society and were approved by the institutional animal care and use committee.
Rats from 6 to 12 weeks of age were treated with 11-nonyloxy-undec-8(Z)-enoic acid derivative (TVR-I-276-21)( 2 mg/d i.p.) or vehicle for 8 days. Blood pressure was measured at Day 0, Day 4, and Day 8.
The blood pressure lowering effects of these analogs were analyzed in an established model of hepertension, the spontaneously hypertensive rats (SHR) using telemetry. […] As discussed in the previous example, additional derivatives with improved solubility and resistance to auto-oxidation and metabolism by sEH were designed using the pharmacophoric moiety of EET.
Amidation of the carboxylic group with aspartic acid produced another EET analog 32 (SA-III-161-32). […] Amidation of the carboxylic group with lysine amino acid produced another EET analog 34 (SA-III-172-26).

CCCCCCCCCOCC/C=C\CCCCCCC(=O)O [11,12-ether EET-8-ZE, 11-nonyloxy-undec-8(Z)-enoic acid, reference compound]
blood pressure lowering: failed to lower blood pressure

CCCCCCCCCOCC/C=C\CCCCCCC(=O)NC(CC(=O)O)C(=O)O (centres unmarked) [SA-III-161-32, (Z)-2-(11-(nonyloxy)undec-8-enamido) succinic acid]
blood pressure lowering effect (injected at 3 mg/day for 5 days): demonstrated a blood pressure lowering effect
MAP Δ change at day 2 of injection (injected at 3 mg/day for 5 days, telemetry): −8±1.3 mmHg

CCCCCCCCCOCC/C=C\CCCCCCC(=O)NC(CCCCN)C(=O)O (centres unmarked) [SA-III-172-26, (Z)-6-amino-2-(11-(nonyloxy)undec-8-enamido)hexanoic acid]
blood pressure lowering effect (injected at 2 mg/day): minimal blood pressure lowering effect

CCCCCCCCCOCC/C=C\CCCCCCC(=O)OCCOCCOCCO [TVR-I-276-21, (Z)-2-(2-(2-hydroxyethoxy)ethoxy)ethyl 11-(nonyloxy)undec-8-enoate]
blood pressure (2 mg/d i.p. for 8 days, measured Day 0, 4, 8, versus vehicle): did not increase to the same extent as those that received the vehicle treatment
